Assay results reported in ChEMBL document CHEMBL1148306, “Reducing the peptidyl features of caspase-3 inhibitors: a structural analysis” (J Med Chem, 2004).

Target: T1, Caspase-3 (Homo sapiens, UniProt P42574)
T1 sequence (P42574 whole entry): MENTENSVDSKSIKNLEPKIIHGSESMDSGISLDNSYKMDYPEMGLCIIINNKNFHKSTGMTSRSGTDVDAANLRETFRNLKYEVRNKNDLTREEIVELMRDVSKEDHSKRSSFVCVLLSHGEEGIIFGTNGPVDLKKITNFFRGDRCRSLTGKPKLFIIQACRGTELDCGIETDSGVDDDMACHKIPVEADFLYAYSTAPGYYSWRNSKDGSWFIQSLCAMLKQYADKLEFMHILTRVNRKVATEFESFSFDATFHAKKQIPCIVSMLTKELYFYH
Assay: Inhibitory concentration of compound against caspase-3

IC50: 0.0177 µM
Compound: COc1ccc(Br)cc1CC(=O)N[C@H](C(=O)N[C@@H](CC(=O)O)C(=O)CSCc1ccccc1)C(C)C
